Results from the supplement of paper PMC10307832.

Assays:
Test in all cases: relative viability (nuclei count vs DMSO), 5 days (fraction); higher = more cells survive
[1] = compound: Nc1nc(Nc2ccc3c(c2)CC[C@@H](N2CCCC2)CC3)nn1-c1cc2c(nn1)-c1ccccc1CCC2 [Bemcentinib]
Method in brief: (§1)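 MetaXpress counted nuclei in 4× images of lung cancer cell lines that had been fixed, permeabilised and Hoechst-stained in one step. Before that, cells in 1536-well plates were kept overnight at 37 °C, pinned with five √10-spaced library-drug doses on vehicle-anchored plates, and cultured 5 days without medium change. Viability takes treated-well nuclei over vehicle-well nuclei and uses the median across plates. Plates were accepted only at control CV below 25% and at least one doubling.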

[2] = compound: CC1=CC=C(C=C1)C(=O)CN2C3=C(CCCC3)SC2=N [Pifithrin_alpha]
Method in brief: as §1

[3] = compound: CNC(=O)c1ccccc1Sc1ccc2c(/C=C/c3ccccn3)n[nH]c2c1 [Axitinib]
Method in brief: as §1

[4] = compound: CC1=CC=C(C=C1)C(=O)CN2C3=C(CCCC3)SC2=N [Pifithrin_alpha] + CC(=O)Nc1cccc(-n2c(=O)n(C3CC3)c(=O)c3c(Nc4ccc(I)cc4F)n(C)c(=O)c(C)c32)c1 [Trametinib] (partner 0.02 µM)
Method in brief: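 Values are medians from duplicate plates. Each reflects relative viability, defined as the nuclei count of treated wells over that of vehicle wells. Lung cancer cell lines in 1536-well plates were pin-tool dosed one day after seeding with one drug alone or with a fixed anchor-drug dose plus five library-drug doses (not always all listed) in √10 steps, then fixed, stained and imaged at 4× after 5 days.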

| Cell Line | relative viability ([1]; 0.04 µM) | relative viability ([1]; 0.1265 µM) | relative viability ([1]; 0.4 µM) | relative viability ([1]; 1.265 µM) | relative viability ([1]; 4 µM) | relative viability ([2]; 1 µM) | relative viability ([2]; 3.162 µM) | relative viability ([2]; 10 µM) | relative viability ([2]; 100 µM) | relative viability ([3]; 0.005 µM) | relative viability ([3]; 0.01581 µM) | relative viability ([3]; 0.05 µM) | relative viability ([3]; 0.1581 µM) | relative viability ([3]; 0.5 µM) | relative viability ([4]; first compound 1 µM) | relative viability ([4]; first compound 3.162 µM) | relative viability ([4]; first compound 10 µM) | relative viability ([4]; first compound 31.62 µM) | relative viability ([4]; first compound 100 µM) | relative viability ([2]; 31.62 µM) |
| --- | --- | --- | --- | --- | --- | --- | --- | --- | --- | --- | --- | --- | --- | --- | --- | --- | --- | --- | --- | --- |
| LK-2 | 0.969 | 1.26 | 1.25 | 1.06 | 1.01 | 0.975 | 1.18 | 1.12 | 1.25 | 0.976 | 0.746 | 0.816 | 0.823 | 0.822 | 0.811 | 0.856 | 0.684 | 0.601 | 0.687 |  |
| EPLC-272H | 0.749 | 0.991 | 1.01 | 0.906 | 0.841 | 0.622 | 0.892 | 0.859 | 0.802 | 0.943 | 0.832 | 0.938 | 0.896 | 0.83 |  | 0.282 | 0.281 | 0.284 | 0.268 | 0.755 |
| NCI-H441 | 1.01 | 1.23 | 1.04 | 0.915 | 1.26 | 1.08 | 1.21 | 1.03 | 1.23 | 1.07 | 1.07 | 1.11 | 1.22 | 1.1 | 0.421 | 0.474 | 0.409 |  | 0.333 | 0.721 |
| NCI-H23 | 0.92 | 1.24 | 1.13 | 0.838 | 1.06 | 0.847 | 0.846 | 0.959 | 0.787 | 1.02 | 0.954 | 1.15 | 0.926 | 0.97 | 0.288 | 0.314 | 0.447 | 0.353 | 0.358 | 0.582 |
| NCI-H647 | 1.06 | 1.09 | 0.989 | 0.971 | 1.03 | 0.949 | 0.916 | 0.889 | 0.849 | 1.14 | 0.97 | 1.03 | 0.968 | 1.15 | 0.391 | 0.335 | 0.332 | 0.344 | 0.496 | 0.722 |
| LXF-289 | 1.03 | 1.09 | 1.06 | 1.06 | 1.05 | 1.02 | 1.02 | 0.98 | 0.977 | 1.01 | 0.971 | 0.994 | 0.963 | 1.05 | 0.696 | 0.731 | 0.716 | 0.587 | 0.718 | 0.941 |
| NCI-H596 | 0.883 | 1.03 | 0.924 | 0.908 | 1.07 | 1.12 | 0.886 | 0.958 | 0.996 | 1.04 | 0.956 | 1.03 | 1.06 | 0.947 | 0.762 | 0.675 | 0.76 | 0.587 | 0.675 | 0.973 |
